Reference: the NIST ThermoML archive (doi:10.1021/je500804j)
Numbers after ± are expanded uncertainties.

Experiment: mn = molality of the nth substance listed, in mol/kg
Settings: 101 kPa, Liquid, Alternating current cell with electrodes

CCCCCCCC[N+](C)(C)CCCCCC[N+](C)(C)CCCCCCCC.[Br-].[Br-] + O
electrical conductivity (313.15 K, m1 = 0.1169): 1.553 ± 0.0063 S/m | electrical conductivity (318.15 K, m1 = 0.00396): 0.09519 ± 0.00061 S/m | electrical conductivity (318.15 K, m1 = 0.00782): 0.2003 ± 0.00096 S/m | electrical conductivity (318.15 K, m1 = 0.01158): 0.2945 ± 0.0013 S/m | electrical conductivity (318.15 K, m1 = 0.01525): 0.381 ± 0.0016 S/m | electrical conductivity (318.15 K, m1 = 0.01883): 0.4611 ± 0.0019 S/m | electrical conductivity (318.15 K, m1 = 0.02233): 0.5339 ± 0.0022 S/m | electrical conductivity (318.15 K, m1 = 0.02574): 0.6047 ± 0.0025 S/m | electrical conductivity (318.15 K, m1 = 0.02907): 0.6691 ± 0.0027 S/m | electrical conductivity (318.15 K, m1 = 0.03233): 0.7314 ± 0.003 S/m | electrical conductivity (318.15 K, m1 = 0.03551): 0.7874 ± 0.0032 S/m | electrical conductivity (318.15 K, m1 = 0.03862): 0.8418 ± 0.0034 S/m | electrical conductivity (318.15 K, m1 = 0.04166): 0.8941 ± 0.0036 S/m | electrical conductivity (318.15 K, m1 = 0.04463): 0.9453 ± 0.0038 S/m | electrical conductivity (318.15 K, m1 = 0.04754): 0.9898 ± 0.004 S/m | electrical conductivity (318.15 K, m1 = 0.05038): 1.036 ± 0.0042 S/m | electrical conductivity (318.15 K, m1 = 0.05589): 1.12 ± 0.0045 S/m | electrical conductivity (318.15 K, m1 = 0.05856): 1.154 ± 0.0046 S/m | electrical conductivity (318.15 K, m1 = 0.06117): 1.192 ± 0.0048 S/m | electrical conductivity (318.15 K, m1 = 0.06373): 1.221 ± 0.0049 S/m | electrical conductivity (318.15 K, m1 = 0.06624): 1.254 ± 0.005 S/m | electrical conductivity (318.15 K, m1 = 0.06869): 1.281 ± 0.0052 S/m | electrical conductivity (318.15 K, m1 = 0.0711): 1.313 ± 0.0053 S/m | electrical conductivity (318.15 K, m1 = 0.07346): 1.338 ± 0.0054 S/m | electrical conductivity (318.15 K, m1 = 0.07577): 1.367 ± 0.0055 S/m | electrical conductivity (318.15 K, m1 = 0.07804): 1.392 ± 0.0056 S/m | electrical conductivity (318.15 K, m1 = 0.08027): 1.412 ± 0.0057 S/m | electrical conductivity (318.15 K, m1 = 0.08245): 1.437 ± 0.0058 S/m | electrical conductivity (318.15 K, m1 = 0.08459): 1.458 ± 0.0059 S/m | electrical conductivity (318.15 K, m1 = 0.0867): 1.474 ± 0.0059 S/m | electrical conductivity (318.15 K, m1 = 0.08876): 1.498 ± 0.006 S/m | electrical conductivity (318.15 K, m1 = 0.09078): 1.51 ± 0.0061 S/m | electrical conductivity (318.15 K, m1 = 0.09277): 1.532 ± 0.0062 S/m | electrical conductivity (318.15 K, m1 = 0.09473): 1.547 ± 0.0062 S/m | electrical conductivity (318.15 K, m1 = 0.09665): 1.567 ± 0.0063 S/m | electrical conductivity (318.15 K, m1 = 0.09853): 1.582 ± 0.0064 S/m | electrical conductivity (318.15 K, m1 = 0.1004): 1.591 ± 0.0064 S/m | electrical conductivity (318.15 K, m1 = 0.1022): 1.609 ± 0.0065 S/m | electrical conductivity (318.15 K, m1 = 0.104): 1.626 ± 0.0065 S/m | electrical conductivity (318.15 K, m1 = 0.1057): 1.636 ± 0.0066 S/m | electrical conductivity (318.15 K, m1 = 0.1075): 1.647 ± 0.0066 S/m | electrical conductivity (318.15 K, m1 = 0.1092): 1.659 ± 0.0067 S/m | electrical conductivity (318.15 K, m1 = 0.1109): 1.674 ± 0.0067 S/m | electrical conductivity (318.15 K, m1 = 0.1125): 1.687 ± 0.0068 S/m | electrical conductivity (318.15 K, m1 = 0.1141): 1.699 ± 0.0068 S/m | electrical conductivity (318.15 K, m1 = 0.1157): 1.713 ± 0.0069 S/m | electrical conductivity (318.15 K, m1 = 0.1173): 1.724 ± 0.0069 S/m | electrical conductivity (318.15 K, m1 = 0.1188): 1.732 ± 0.007 S/m | electrical conductivity (318.15 K, m1 = 0.1203): 1.749 ± 0.007 S/m | electrical conductivity (318.15 K, m1 = 0.1218): 1.761 ± 0.0071 S/m | electrical conductivity (323.15 K, m1 = 0.00396): 0.123 ± 0.00073 S/m | electrical conductivity (323.15 K, m1 = 0.00782): 0.2241 ± 0.001 S/m | electrical conductivity (323.15 K, m1 = 0.01158): 0.3183 ± 0.0014 S/m | electrical conductivity (323.15 K, m1 = 0.01526): 0.4132 ± 0.0017 S/m | electrical conductivity (323.15 K, m1 = 0.01884): 0.5013 ± 0.0021 S/m | electrical conductivity (323.15 K, m1 = 0.02233): 0.5818 ± 0.0024 S/m | electrical conductivity (323.15 K, m1 = 0.02575): 0.6582 ± 0.0027 S/m | electrical conductivity (323.15 K, m1 = 0.02908): 0.7289 ± 0.0029 S/m | electrical conductivity (323.15 K, m1 = 0.03234): 0.7956 ± 0.0032 S/m | electrical conductivity (323.15 K, m1 = 0.03552): 0.8617 ± 0.0035 S/m | electrical conductivity (323.15 K, m1 = 0.03863): 0.9197 ± 0.0037 S/m | electrical conductivity (323.15 K, m1 = 0.04167): 0.9784 ± 0.004 S/m | electrical conductivity (323.15 K, m1 = 0.04464): 1.033 ± 0.0042 S/m | electrical conductivity (323.15 K, m1 = 0.04755): 1.084 ± 0.0044 S/m | electrical conductivity (323.15 K, m1 = 0.0504): 1.133 ± 0.0046 S/m | electrical conductivity (323.15 K, m1 = 0.05591): 1.222 ± 0.0049 S/m | electrical conductivity (323.15 K, m1 = 0.05858): 1.262 ± 0.0051 S/m | electrical conductivity (323.15 K, m1 = 0.06119): 1.299 ± 0.0052 S/m | electrical conductivity (323.15 K, m1 = 0.06375): 1.336 ± 0.0054 S/m | electrical conductivity (323.15 K, m1 = 0.06625): 1.367 ± 0.0055 S/m | electrical conductivity (323.15 K, m1 = 0.06871): 1.396 ± 0.0056 S/m | electrical conductivity (323.15 K, m1 = 0.07112): 1.427 ± 0.0057 S/m | electrical conductivity (323.15 K, m1 = 0.07348): 1.453 ± 0.0058 S/m | electrical conductivity (323.15 K, m1 = 0.07579): 1.485 ± 0.006 S/m | electrical conductivity (323.15 K, m1 = 0.07806): 1.514 ± 0.0061 S/m | electrical conductivity (323.15 K, m1 = 0.08029): 1.542 ± 0.0062 S/m | electrical conductivity (323.15 K, m1 = 0.08247): 1.564 ± 0.0063 S/m | electrical conductivity (323.15 K, m1 = 0.08461): 1.59 ± 0.0064 S/m | electrical conductivity (323.15 K, m1 = 0.08672): 1.613 ± 0.0065 S/m | electrical conductivity (323.15 K, m1 = 0.08878): 1.634 ± 0.0066 S/m | electrical conductivity (323.15 K, m1 = 0.09081): 1.651 ± 0.0066 S/m | electrical conductivity (323.15 K, m1 = 0.0928): 1.671 ± 0.0067 S/m | electrical conductivity (323.15 K, m1 = 0.09475): 1.694 ± 0.0068 S/m | electrical conductivity (323.15 K, m1 = 0.09667): 1.71 ± 0.0069 S/m | electrical conductivity (323.15 K, m1 = 0.09855): 1.728 ± 0.0069 S/m | electrical conductivity (323.15 K, m1 = 0.1004): 1.745 ± 0.007 S/m | electrical conductivity (323.15 K, m1 = 0.1022): 1.761 ± 0.0071 S/m | electrical conductivity (323.15 K, m1 = 0.104): 1.776 ± 0.0071 S/m | electrical conductivity (323.15 K, m1 = 0.1058): 1.788 ± 0.0072 S/m | electrical conductivity (323.15 K, m1 = 0.1075): 1.804 ± 0.0072 S/m | electrical conductivity (323.15 K, m1 = 0.1092): 1.816 ± 0.0073 S/m | electrical conductivity (323.15 K, m1 = 0.1109): 1.832 ± 0.0074 S/m | electrical conductivity (323.15 K, m1 = 0.1125): 1.841 ± 0.0074 S/m | electrical conductivity (323.15 K, m1 = 0.1141): 1.854 ± 0.0075 S/m | electrical conductivity (323.15 K, m1 = 0.1157): 1.866 ± 0.0075 S/m | electrical conductivity (323.15 K, m1 = 0.1173): 1.881 ± 0.0076 S/m | electrical conductivity (323.15 K, m1 = 0.1188): 1.893 ± 0.0076 S/m | electrical conductivity (323.15 K, m1 = 0.1203): 1.901 ± 0.0076 S/m | electrical conductivity (323.15 K, m1 = 0.1218): 1.917 ± 0.0077 S/m
